One data set relates to several fungal species. The conditions noted are these: cited from earlier work. The source says: (§1) The mechanism of action proposed for Psd1 antifungal activity includes its interaction with specific cell wall/membrane lipid targets, such as C8-desaturated and C9-methylated glucosylceramide (GlcCer), a fungal exclusive GSL, and ergosterol.
For data set [1] the following is noted: cited from earlier work.
Source text: as §1

Data set [2] relates to B16F10 melanoma cells in C57BL/6 mice. As to the kind of experiment: Experimental B16F10 melanoma lung metastasis, nodule count. The format is in vivo. The following applies: for Lung nodules: day 21, mean ± SEM. The source says: Figure 6 Protective effects of Psd1 on a model of experimental lung metastasis in vivo. B16F10 mouse melanoma tumors were established by intravenous injection of 2.5 × 10^5 B16F10 cells into C57BL/6 mice. (A) After 21 days, mice from each experimental group were sacrificed, and the number of visible lung metastatic nodules was quantified. Treatment of the animals inoculated with melanoma cells plus Psd1 caused a dose-dependent reduction in the number of lung metastases. Black lines represent the mean ± SEM of two independent experiments analyzed by one-way ANOVA and Bonferroni’s multiple comparison test. **** p < 0.0001 B16F10 vs. phosphate buffer solution (PBS); **** p < 0.0001 B16F10 vs. Psd1 1 mg/kg; **** p < 0.0001 B16F10 vs. just Psd1 1 mg/kg (without B16F10 cells); *** p < 0.001 B16F10 vs. Psd1 3 mg/kg; * p < 0.05 B16F10 vs. Psd1 0.5 mg/kg. (B) Representative images of lung metastatic nodules from animals that received just PBS or B16F10 cells alone or together with 0.1 mg/kg or 1 mg/kg Psd1. Bar = 2 mm. (C) Animal weights were acquired every two days. Weight variation was calculated as (weight on that day (weight of the first day × 100 − 100)). Only the days with higher weight differences between animals injected with only B16F10 cells and those that received cells plus Psd1 or PBS alone are represented. All of the values represent the mean ± SEM of two independent experiments analyzed by two-way ANOVA. *** p < 0.001 B16F10 vs. PBS at […]; *** p < 0.001 B16F10 vs. Psd1 0.1 mg/kg at 9 weeks; ** p < 0.01 B16F10 vs. Psd1 0.1 mg/kg at 13 weeks; *** p < 0.001 B16F10 vs. Psd1 1 mg/kg at 9 and 13 weeks; ** p < 0.01 B16F10 vs. Psd1 1 mg/kg at 17 weeks; * p < 0.05 B16F10 vs. Psd1 1 mg/kg at 7 weeks; *** p < 0.001 B16F10 vs. Psd1 3 mg/kg at 7 and 9 weeks.
Eight-week-old C57BL/6 female mice (CEMIB, Campinas–Brasil) weighing approximately 20 g were individually marked and separated according to their experimental groups. These animals were kept in cages 20 cm × 35 cm × 15 cm (width × length × height) with free access to water and food under day and night cycles that lasted twelve hours with a controlled temperature (20–25 °C) in our own facilities. This study was approved by the Ethics Committee on the Use of Animals of Health Science Centre of the Federal University of Rio de Janeiro, Brazil (CEUA/CCS/UFRJ, CONCEA registered number 01200.001568/2013.87, approved protocol IBCCF 163 at 28 August 2012). All animals received humane care in compliance with the “Principles of Laboratory Animal Care” formulated by the National Society for Medical Research and the “Guide for the Care and Use of Laboratory Animals” prepared by the National Academy of Sciences, USA, and the National Council for Controlling Animal Experimentation, Ministry of Science, Technology and Innovation (CONCEA/MCTI), Brazil.
Mice were injected via the lateral tail vein with 100 µL of PBS only (137 mM NaCl, 2.7 mM KCl, 10 mM Na2HPO4, 2 mM KH2PO4, pH 7.4) (n = 17) or 100 µL of B16F10 cells (2.5 × 10^5 cells/animal suspended in DMEM) (n = 15). Other groups of animals were intravenously co-injected with a freshly prepared, in order to avoid B16F10 cells death, mix of B16F10 cells plus 0.1 mg/kg (n = 8), 0.5 mg/kg (n = 8), 1 mg/kg (n = 17), or 3 mg/kg Psd1 (n = 7).
Another group of animals received 1 mg/kg of Psd1 only (n = 9) to evaluate Psd1 toxicity. Twenty-one days later, the animals were anaesthetized and sacrificed, and the black lung melanoma nodules were counted and measured under a dissecting microscope (Zeiss AxioPhot fluorescence microscope (Carl-Zeiss, Oberkochen, Germany)).

On to “Psd1: 46-amino acid residue plant defensin isolated from pea seeds, expressed in Pichia pastoris (PDB 1JKZ) (KTCEHLADTYRGVCFTNASCDDHCKNKAHLISGTCHNWKCFCTQNC)”, for which, in the data set with several fungal species, the “Antimicrobial activity against fungi” value was “well-documented antimicrobial activity against several fungal species”. The “Affinity to cholesterol-enriched lipid bilayers” value in data set [1] is listed as “does not show good affinity”. For the same substance, the “Number of lung nodules, result in words” value in data set [2] (0.1 mg/kg i.v., day 21) is recorded as “not effective in reducing the number of nodules”. The “Size of lung nodules, result in words” value in data set [2] (0.1 mg/kg i.v., day 21, data not shown) is recorded as “effective in reducing their size”. The Lung nodules worked out at 10.2 ± 2.6 nodules in data set [2] (0.5 mg/kg i.v. co-injected with B16F10 cells, B16F10 only average 43 nodules, p < 0.05); 4.82 ± 1.88 nodules in data set [2] (1.0 mg/kg i.v. co-injected with B16F10 cells, p < 0.0001); 0.14 ± 0.14 nodules in data set [2] (3.0 mg/kg i.v. co-injected with B16F10 cells, p < 0.001). Besides, the “Decrease of number of pulmonary nodules” value is recorded as 75% in data set [2] (0.5 mg/kg i.v., day 21) and 88% in data set [2] (1.0 mg/kg i.v., day 21). In addition, the “Lung nodules in animals without B16F10 cells” value in data set [2] (1.0 mg/kg Psd1 alone, i.v., day 21) is recorded as “did not present lung nodules”. In addition, the “Tumor development, result in words” value in data set [2] (3.0 mg/kg i.v., day 21) is recorded as “completely abolished tumor development”. Besides, the “Lung metastasis nodules, result in words” value in data set [2] (i.v., above 0.5 mg/kg) is given as “completely inhibited the formation of B16F10 lung metastasis nodules”. For the same substance, the “Lowest dose with significant reduction of lung metastasis colonization” value in data set [2] (i.v., day 21, dose-dependent) was found to be 0.5 mg/kg.

These data come from publication PMC7219108, “Pisum sativum Defensin 1 Eradicates Mouse Metastatic Lung Nodules from B16F10 Melanoma Cells” (International Journal of Molecular Sciences, 2020).
